Laboratory results published in patent publication US7148194B2, “Method to increase fibronectin” (Kimberly-Clark Worldwide, Inc., priority 2002, dated 2006).
Entries after “also recorded” stand apart in the source; their conditions may differ.

Tests used:
pro-MMP-9 = pro-MMP-9 (Homo sapiens, UniProt P14780); assay: anti-activation (splicing) assay: conversion of pro-MMP-9 by stromilysin, HPLC; type: biochemical; conditions: pro-MMP-9 with stromilysin, micromolar 19-mer
Description: The assay measured how much proenzyme was converted into mature matrix metalloproteinase. Proenzyme pro-MMP-9 (100 μg) was mixed with 0.5 μg of stromilysin in PBS. The reaction was incubated at 35° C. Aliquots were removed from the reaction over an 80-minute time course. […] The zero (injection) time point was a single peak that eluted from the column in approximately 750 seconds. This peak reduced in size as a function of time, and two new peaks appeared. The first peak eluted at approximately 800 seconds, and represents the mature form of MMP-9. The second peak eluted at approximately 1100 seconds, and corresponds to the N-terminal pro-domain fragment. Peak areas were determined by integrating over the elution profile, and the percent area changes were plotted.
The first peak, eluting at approximately 700 seconds, is pro-MMP-9. As the splicing reaction proceeds, this peak decreases in intensity (as marked with the downwards arrow), and two new peaks appear. The first new peak, eluting at approximately 800 seconds, is mature and active MMP-9. The second new peak, eluting at approximately 1050 seconds, is the prodomain. As the splicing reaction proceeds, the intensity of these two peaks increases (as marked with the upwards arrows). When the reaction is complete, there is no detectable pro-MMP-9 remaining.

MMP-9 = target: T1, MMP-9 (Homo sapiens, UniProt P14780); assay: isothermal titration calorimetry with MMP-9; type: binding; conditions: ITC, 20 mM NaCl
T1 construct: Active MMP-9 enzyme was purchased from Calbiochem; purchased Calbiochem
T1 sequence (P14780 107-707 limits assumed): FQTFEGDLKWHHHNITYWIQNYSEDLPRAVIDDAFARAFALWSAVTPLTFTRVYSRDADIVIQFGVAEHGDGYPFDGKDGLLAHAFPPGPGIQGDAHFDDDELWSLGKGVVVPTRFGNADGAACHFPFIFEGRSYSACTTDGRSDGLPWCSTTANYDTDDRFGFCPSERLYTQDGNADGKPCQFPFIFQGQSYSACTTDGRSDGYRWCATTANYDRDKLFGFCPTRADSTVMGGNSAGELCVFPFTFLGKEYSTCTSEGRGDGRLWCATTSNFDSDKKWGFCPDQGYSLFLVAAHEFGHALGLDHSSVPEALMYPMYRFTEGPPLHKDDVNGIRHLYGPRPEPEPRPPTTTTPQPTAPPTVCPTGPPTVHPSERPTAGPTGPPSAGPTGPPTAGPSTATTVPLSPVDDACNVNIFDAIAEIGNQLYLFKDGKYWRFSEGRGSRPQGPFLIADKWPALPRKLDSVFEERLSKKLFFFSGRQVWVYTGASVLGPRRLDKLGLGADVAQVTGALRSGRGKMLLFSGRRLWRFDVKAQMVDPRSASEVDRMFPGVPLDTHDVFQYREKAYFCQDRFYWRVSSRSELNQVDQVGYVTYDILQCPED
Description: Isothermal titration calorimetry (ITC) was performed with a VP-ITC instrument from MicroCal, Inc. Titrations were carried out by injecting 5 μL of an inhibitor peptide solution (at concentration ranges from 0.5 mM to 2.0 mM) into the 1.4 mL stirred reaction cell. MMP-9 ranged in concentration from 50 to 80 μM in the cell. Both the inhibitor and the enzyme were in 20 mM sodium cacodylate (pH 5.5–7.0), 40 mM NaCl, or 20 mM Tris-HCl (pH 7.0–7.5), 40 mM NaCl. Titrations were conducted between 20° C. and 40° C. Typical experimental conditions for the titrations were a 10 second injection period followed by a 240 second delay between injections for a total of 40 injections. Blank titrations of inhibitor peptide into buffer were performed in order to correct for heats of dilution and mixing.
The independent set of multiple binding sites is the most common model for binding experiment evaluations. The analytical solution for the total heat is determined by (Freire et al., 1990):
[formula] where Q is the total heat, V is the cell volume, ΔH is the enthalpy, M is the macromolecule concentration (the binding partner in the cell), n is the binding stoichiometry, L is the ligand concentration (the binding partner in the syringe), and K is the association constant. Data were fit to this model using Origin version 5 (MicroCal, Inc.). Surface Plasmon Resonance
The peptide was dissolved in 20 mM cacodylate (pH 6.8), 20 mM NaCl at a final concentration of 1 mM. MMP-9 was dialyzed into the same buffer at a final concentration of 20 μM. A series of standard injections were performed as described above.

C57BL6/KsJ db/db mice = assay: wound healing in db/db diabetic mice; type: in vivo
Source text: The mice were obtained from The Jackson Laboratories and were aged 3–7 months before the onset of the wounding protocol. All mice were anesthetized prior to wounding. Wounds were created in C57BL6/KsJ db/db mice with a 4 mm biopsy punch. Two wounds were introduced onto the upper back of each animal by pulling the skin away from underlying structures and pushing the punch through the isolated skin. Typically, wounds were created to an average depth of 1.7 mm, with a range of 1.3 to 2.2 mm. No muscle involvement occurred during the course of wounding.
Each day the wounds were digitally photographed and wound areas were determined by computer integration of the photographs. All wound treatments and the subsequent data analyses were performed in a blind manner (see e.g., Brown et al., 1994). Wound area at the time of wounding (day 0) is arbitrarily set to a relative value of 1 for all wounds; such that subsequent wound areas are converted to relative wound areas by dividing the wound area at day n by the wound area at day zero.

neutrophils = assay: neutrophil migration assay, transwell plate; type: cell-based, human; conditions: for Percent Neutrophil Migration exp. 1: 0.4% HSA; for Percent Neutrophil Migration exp. 2: 0.04% HSA
Description: Peptides were synthesized and purified by the Microchemical Facility at Emory University or by SigmaGenesis. All peptides were analyzed by mass spectrometry after HPLC to assess purity. Approximately 0.5–2.0 milligrams of peptide were used to make fresh stock solutions (5 mg/mL in HBSS/HSA) for each migration assay. The peptide stock solutions were used to make more dilute solutions (1 mg/mL, 100 μg/mL, 10 μg/mL, 1 μg/mL, 100 ng/mL, and 10 ng/mL) in HBSS/HSA for the assays.
Neutrophils were isolated from human blood (collected in Vacutainer™ tubes containing EDTA) by layering the blood/EDTA mixture (about 20 mL) on top of two layers of Histopaque™ 1119 (bottom layer, 18 mL) and 1077 (top layer, 7 mL) in 50 mL Falcon tubes. The tubes were centrifuged at 1800 rpm for 30 minutes (no brake). Four layers appeared in the tubes after the spin (from top to bottom layers): plasma, 1077, 1119, and red blood cells. The buffy coat between the plasma and 1077 layers contained lymphocytes, monocytes, and some platelets. The plasma layer, the buffy coat, and most of the 1077 layer was removed and discarded. The 1119 layer that contained the neutrophils was removed and was placed into a clean 50 mL tube. Dulbecco's Phosphate Buffered Saline (DPBS) was added to bring the volume to 50 mL. The cells were centrifuged for 15 minutes at 2100 rpm. The cells were resuspended in 10 mL of DPBS, transferred to 15 mL tubes, and centrifuged again for 10 minutes at 2000 rpm. This process was repeated to wash the cells a second time. After the supernatant was removed, the red blood cells were lysed by adding 6 mL of cold sterile water to each 15 mL of supernatant. Cells were mixed in the water for only 30 seconds. Six mL of cold 2% sterile saline was then added. Cells were centrifuged again for 10 minutes at 2000 rpm. The red supernatant (containing hemoglobin from red blood cells) was removed. This process of red blood cell lysis was repeated two more times to remove all of the red blood cells. After most of the red blood cells were removed, neutrophils were resuspended in 10 mL of HBSS/HSA for counting with trypan blue.
A neutrophil migration assay was performed in duplicate using a 24-well transwell plate (3 μm pore size for membrane). Transwell membranes were pre-moistened with 20–40 μL of HBSS/HSA (0.04–0.4%). Chemotactic solutions (500 μL) were added to the bottom of each well. […] Transwells were then placed into the chemotactic solutions. The plate was placed into the incubator (37° C., 5% CO2) for one hour. Cells that migrated through the membrane were counted using trypan blue.
In the neutrophil migration experiments, neutrophils that were isolated were approximately 95% viable. […]

[1] = MMP-9, 20 mM cacodylate (pH 6.8)
[2] = single dose 5 μL of 20 μg/mL at day zero

pro-MMP-9, sequence (P14780 20-707): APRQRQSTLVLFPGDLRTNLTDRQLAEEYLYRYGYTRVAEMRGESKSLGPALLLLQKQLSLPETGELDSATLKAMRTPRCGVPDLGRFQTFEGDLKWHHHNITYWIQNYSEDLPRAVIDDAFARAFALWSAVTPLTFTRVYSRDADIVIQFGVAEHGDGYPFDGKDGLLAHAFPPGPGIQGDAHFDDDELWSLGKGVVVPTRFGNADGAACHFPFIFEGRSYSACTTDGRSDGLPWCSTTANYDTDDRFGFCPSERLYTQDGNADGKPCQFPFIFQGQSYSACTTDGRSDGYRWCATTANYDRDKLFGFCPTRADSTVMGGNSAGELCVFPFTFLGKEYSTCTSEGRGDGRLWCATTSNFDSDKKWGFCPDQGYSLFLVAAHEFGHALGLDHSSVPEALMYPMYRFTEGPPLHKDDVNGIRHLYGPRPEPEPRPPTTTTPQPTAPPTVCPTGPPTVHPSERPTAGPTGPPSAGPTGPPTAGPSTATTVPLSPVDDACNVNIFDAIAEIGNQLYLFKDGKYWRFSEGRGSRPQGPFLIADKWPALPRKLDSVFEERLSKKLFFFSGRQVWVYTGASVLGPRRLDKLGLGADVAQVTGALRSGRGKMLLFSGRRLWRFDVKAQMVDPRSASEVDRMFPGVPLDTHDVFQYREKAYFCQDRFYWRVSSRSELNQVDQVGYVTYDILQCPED

CC(C)[C@H](NC(=O)[C@H](CC(=O)O)NC(=O)[C@@H]1CCCN1C(=O)[C@H](CC(N)=O)NC(=O)CNC(=O)[C@H](CS)NC(=O)[C@H](CCCNC(=N)N)NC(=O)[C@@H]1CCCN1)C(=O)N[C@@H](C)C(=O)N[C@@H](CC(N)=O)C(=O)N[C@@H](Cc1ccc(O)cc1)C(=O)N[C@@H](CC(N)=O)C(=O)N[C@@H](Cc1ccccc1)C(=O)N[C@@H](Cc1ccccc1)C(=O)N1CCC[C@H]1C(=O)N[C@@H](CCCNC(=N)N)C(=O)N[C@@H](CCCCN)C(=O)N1CCC[C@H]1C(=O)N[C@@H](CCCCN)C(=O)O [Peptide 19-mer]
inhibition of conversion of pro-MMP-9 into prodomain and active enzyme (splicing) (pro-MMP-9): prevents the activation; also recorded: inhibited in a dose dependent manner | Stoichiometry (MMP-9; MMP-9 20 μM, peptide 1 mM, 20 mM cacodylate (pH 6.8)): 0.975 ± 0.02 | ΔH (MMP-9; [1]): -26.1 ± 1.45 kcal/mol | ΔS (MMP-9; [1]): −11.6 ± 2.2 cal mol^−1 K^−1 | wound inflammation (C57BL6/KsJ db/db mice; day one post wounding): reduction in wound inflammation | day on which wound contraction process began (C57BL6/KsJ db/db mice; [2]): 5 days | time to wound closure post wounding (C57BL6/KsJ db/db mice; [2]): 9 days | Percent Neutrophil Migration exp. 1 (neutrophils; 1 μg/mL): 32% | Percent Neutrophil Migration exp. 1 (neutrophils; 10 μg/mL): 22% | Percent Neutrophil Migration exp. 2 (neutrophils; 100 μg/mL): 0% | Percent Neutrophil Migration exp. 1 (neutrophils; 100 μg/mL): 29% | effect on neutrophil migration (neutrophils; 1 mg/mL to 1 μg/mL): did not have an effect on neutrophil migration | Percent Neutrophil Migration exp. 2 (neutrophils; 1 mg/mL): 4% | Percent Neutrophil Migration exp. 1 (neutrophils; 1 mg/mL): 23%
